{
  "source": "patent US20160215348A1",
  "about": "“GENE EXPRESSION BIOMARKERS AND THEIR USE FOR DIAGNOSTIC AND PROGNOSTIC APPLICATION IN PATIENTS POTENTIALLY IN NEED OF HDAC INHIBITOR TREATMENT” (4SC AG, priority 2013, published 2016)",
  "key": {"TBP [1]": {"test_system": "TBP", "assay": "Gene expression in HT29 cancer cells (in vitro)", "assay_type": "cell-based, human", "conditions": "standardized to 0 h", "experimental": "(§1) Hatched columns relate to blood, black columns relate to HepG2 cells, white boxes relate to HT 29 cells. Values are standardized to the value at 0 h.\n(§2) Samples were obtained and gene expressions were determined with the methods as described herein below. The results are shown in below table 3 and FIGS. 2 and 3\n(§3) The above values represent a mean value which was determined on the basis of 2 biological replicates, for each of which 3 technical replicates were prepared. […] The level of gene expression determined in peripheral blood samples can be correlated with a certain level of activity of HDAC in the diseased cells, e.g. by applying an appropriate conversion factor or conversion table, which may be determined for each specific disease, and/or patient group.\n(§4) To determine RNA expression levels of ZFP64 in different cancer cell lines and PBMC, the cell membranes were chemically disrupted with a buffer containing guanidine isothiocycanate, which lyses the cells and supports the binding of RNA to a silica membrane and RNA was extracted via a filter-based spin column.\n(§5) The High-Capacity cDNA Reverse Transcription Kit (Applied Biosystems) was used for reverse transcription of total RNA into single stranded cDNA with the aid of random hexamer primers according to the manufacturer's instructions. Briefly, for the reaction mix total RNA was mixed with random primers in excess, 4 mM dNTP Mix, 2.5 U/reaction, reverse transcriptase and nuclease free water. The reverse transcription took place in a thermal cycler under the following conditions: 25° C. for 10 min, 37° C. for 120 min, 85° C. for 5 min, followed by 4° C. for cooling down the reaction. The reverse transcription can be done in principle as well with other reverse transcriptases, primers and temperature protocols. Whenever possible, 250 ng total RNA were reverse transcribed if not available, lower amounts were used.\n(§6) Custom TaqMan® Arrays (Applied Biosystems) in Format 16 were designed for the gene expression analysis of biomarkers of the present invention and housekeeping genes as outlined in table 4. These arrays allow for qPCR analysis of 8 samples per card. Of course, all reactions can be done as well by conventional qPCR analysis with specific primers."}, "GAPDH [2]": {"test_system": "GAPDH", "assay": "Gene expression in HT29 cancer cells (in vitro)", "assay_type": "cell-based, human", "conditions": "standardized to 0 h", "experimental": "as §1, §2, §3, §4, §5, §6"}, "KDELC2 [3]": {"test_system": "KDELC2", "assay": "Gene expression in HT29 cancer cells (in vitro)", "assay_type": "cell-based, human", "conditions": "standardized to 0 h", "experimental": "as §1, §2, §3, §4, §5, §6"}, "HIST2H4A/B [4]": {"test_system": "HIST2H4A/B", "assay": "Gene expression in HT29 cancer cells (in vitro)", "assay_type": "cell-based, human", "conditions": "standardized to 0 h", "experimental": "as §1, §2, §3, §4, §5, §6"}, "18S [5]": {"test_system": "18S", "assay": "Gene expression in HT29 cancer cells (in vitro)", "assay_type": "cell-based, human", "conditions": "standardized to 0 h", "experimental": "as §1, §2, §3, §4, §5, §6"}, "CCDC43 [6]": {"test_system": "CCDC43", "assay": "Gene expression in HT29 cancer cells (in vitro)", "assay_type": "cell-based, human", "conditions": "standardized to 0 h", "experimental": "as §1, §2, §3, §4, §5, §6"}, "MICALL1 [7]": {"test_system": "MICALL1", "assay": "Gene expression in HT29 cancer cells (in vitro)", "assay_type": "cell-based, human", "conditions": "standardized to 0 h", "experimental": "as §1, §2, §3, §4, §5, §6"}, "DPP3 [8]": {"test_system": "DPP3", "assay": "Gene expression in HT29 cancer cells (in vitro)", "assay_type": "cell-based, human", "conditions": "standardized to 0 h", "experimental": "as §1, §2, §3, §4, §5, §6"}, "ZFP64 [9]": {"test_system": "ZFP64", "assay": "Gene expression in HT29 cancer cells (in vitro)", "assay_type": "cell-based, human", "conditions": "standardized to 0 h", "experimental": "as §1, §2, §3, §4, §5, §6"}, "TBP [10]": {"test_system": "TBP", "assay": "Gene expression in HepG2 cancer cells (in vitro)", "assay_type": "cell-based, human", "conditions": "standardized to 0 h", "experimental": "as §1, §2, §3, §4, §5, §6"}, "GAPDH [11]": {"test_system": "GAPDH", "assay": "Gene expression in HepG2 cancer cells (in vitro)", "assay_type": "cell-based, human", "conditions": "standardized to 0 h", "experimental": "as §1, §2, §3, §4, §5, §6"}, "KDELC2 [12]": {"test_system": "KDELC2", "assay": "Gene expression in HepG2 cancer cells (in vitro)", "assay_type": "cell-based, human", "conditions": "standardized to 0 h", "experimental": "as §1, §2, §3, §4, §5, §6"}, "HIST2H4A/B [13]": {"test_system": "HIST2H4A/B", "assay": "Gene expression in HepG2 cancer cells (in vitro)", "assay_type": "cell-based, human", "conditions": "standardized to 0 h", "experimental": "as §1, §2, §3, §4, §5, §6"}, "18S [14]": {"test_system": "18S", "assay": "Gene expression in HepG2 cancer cells (in vitro)", "assay_type": "cell-based, human", "conditions": "standardized to 0 h", "experimental": "as §1, §2, §3, §4, §5, §6"}, "CCDC43 [15]": {"test_system": "CCDC43", "assay": "Gene expression in HepG2 cancer cells (in vitro)", "assay_type": "cell-based, human", "conditions": "standardized to 0 h", "experimental": "as §1, §2, §3, §4, §5, §6"}, "MICALL1 [16]": {"test_system": "MICALL1", "assay": "Gene expression in HepG2 cancer cells (in vitro)", "assay_type": "cell-based, human", "conditions": "standardized to 0 h", "experimental": "as §1, §2, §3, §4, §5, §6"}, "DPP3 [17]": {"test_system": "DPP3", "assay": "Gene expression in HepG2 cancer cells (in vitro)", "assay_type": "cell-based, human", "conditions": "standardized to 0 h", "experimental": "as §1, §2, §3, §4, §5, §6"}, "ZFP64 [18]": {"test_system": "ZFP64", "assay": "ZFP64 gene expression in diverse cancer cell lines (FIG. 4c)", "assay_type": "cell-based", "conditions": "10 μM; 0, 2, 5 and 24 hours", "text": "as §4"}},
  "data": [
    {"smiles": "CN(C)Cc1ccc(S(=O)(=O)n2ccc(/C=C/C(=O)NO)c2)cc1", "note": "[resminostat, (E)-3-(1-(4-((dimethylamino)methyl)phenylsulfonyl)-1H-pyrrol-3-yl)-N-hydroxyacrylamide]", "values": [
      {"measurement": "Expression level, TBP (housekeeping gene)", "setting": "TBP [1]; 2 h", "result": 1.15},
      {"measurement": "Expression level, TBP (housekeeping gene)", "setting": "TBP [1]; 5 h", "result": 1.13},
      {"measurement": "Expression level, GAPDH (housekeeping gene)", "setting": "GAPDH [2]; 2 h", "result": 0.93},
      {"measurement": "Expression level, GAPDH (housekeeping gene)", "setting": "GAPDH [2]; 5 h", "result": 0.97},
      {"measurement": "Expression level, KDELC2", "setting": "KDELC2 [3]; 2 h", "result": 0.79},
      {"measurement": "Expression level, KDELC2", "setting": "KDELC2 [3]; 5 h", "result": 0.35},
      {"measurement": "Expression level, HIST2H4A/B", "setting": "HIST2H4A/B [4]; 2 h", "result": 0.96},
      {"measurement": "Expression level, HIST2H4A/B", "setting": "HIST2H4A/B [4]; 5 h", "result": 0.88},
      {"measurement": "Expression level, 18s (housekeeping gene)", "setting": "18S [5]; 2 h", "result": 0.94},
      {"measurement": "Expression level, 18s (housekeeping gene)", "setting": "18S [5]; 5 h", "result": 0.91},
      {"measurement": "Expression level, CCDC43", "setting": "CCDC43 [6]; 2 h", "result": 0.82},
      {"measurement": "Expression level, CCDC43", "setting": "CCDC43 [6]; 5 h", "result": 0.53},
      {"measurement": "Expression level, MICALL1", "setting": "MICALL1 [7]; 2 h", "result": 0.81},
      {"measurement": "Expression level, MICALL1", "setting": "MICALL1 [7]; 5 h", "result": 0.42},
      {"measurement": "Expression level, DPP3", "setting": "DPP3 [8]; 2 h", "result": 0.87},
      {"measurement": "Expression level, DPP3", "setting": "DPP3 [8]; 5 h", "result": 0.72},
      {"measurement": "Expression level, ZFP64", "setting": "ZFP64 [9]; 2 h", "result": 0.58},
      {"measurement": "Expression level, ZFP64", "setting": "ZFP64 [9]; 5 h", "result": 0.25},
      {"measurement": "Expression level, TBP (housekeeping gene)", "setting": "TBP [10]; 2 h", "result": 1.15},
      {"measurement": "Expression level, TBP (housekeeping gene)", "setting": "TBP [10]; 5 h", "result": 1.12},
      {"measurement": "Expression level, GAPDH (housekeeping gene)", "setting": "GAPDH [11]; 2 h", "result": 0.96},
      {"measurement": "Expression level, GAPDH (housekeeping gene)", "setting": "GAPDH [11]; 5 h", "result": 1.03},
      {"measurement": "Expression level, KDELC2", "setting": "KDELC2 [12]; 2 h", "result": 0.84},
      {"measurement": "Expression level, KDELC2", "setting": "KDELC2 [12]; 5 h", "result": 0.54},
      {"measurement": "Expression level, HIST2H4A/B", "setting": "HIST2H4A/B [13]; 2 h", "result": 0.88},
      {"measurement": "Expression level, HIST2H4A/B", "setting": "HIST2H4A/B [13]; 5 h", "result": 1.17},
      {"measurement": "Expression level, 18s (housekeeping gene)", "setting": "18S [14]; 2 h", "result": 0.91},
      {"measurement": "Expression level, 18s (housekeeping gene)", "setting": "18S [14]; 5 h", "result": 0.87},
      {"measurement": "Expression level, CCDC43", "setting": "CCDC43 [15]; 2 h", "result": 0.70},
      {"measurement": "Expression level, CCDC43", "setting": "CCDC43 [15]; 5 h", "result": 0.46},
      {"measurement": "Expression level, MICALL1", "setting": "MICALL1 [16]; 2 h", "result": 0.85},
      {"measurement": "Expression level, MICALL1", "setting": "MICALL1 [16]; 5 h", "result": 0.50},
      {"measurement": "Expression level, DPP3", "setting": "DPP3 [17]; 2 h", "result": 0.86},
      {"measurement": "Expression level, DPP3", "setting": "DPP3 [17]; 5 h", "result": 0.72},
      {"measurement": "ZFP64 expression in several cancer cell lines (FIG. 4c)", "setting": "ZFP64 [18]", "result": "down-regulating effect"}
    ]}
  ]
}
